These results are taken from patent publication US20150284305A1, “FLUORINE-CONTAINING COMPOUND AND METHOD FOR PRODUCING SAME” (Asahi Glass Company, Limited, priority 2012, published 2015).

The nature of this series: Solubility test: 20 mg sample in 10 g solvent, evaluated visually. It counts as physicochemical. Particulars: 20 mg in 10 g solvent (0.2 mass %), room temperature / 25° C., visual. On the procedure: For evaluating the applicability thereof to a wet process, the compound to be analyzed was tested in a dissolution test in various solvents. As a comparative case, anthracene was tested for the dissolution test.
Concretely, 20 mg of the sample was weighed, and the solubility thereof (0.2 mass %) in 10 g of a solvent at room temperature was visually evaluated.
In Table 1, A means soluble, and B means insoluble. The standard of “soluble” was set as the case where the compound dissolved in an amount of 0.2% by mass or more at a solvent temperature of 25° C.

For the molecule `c1ccc2cc3ccccc3cc2c1` [Comparative Example 3, Anthracene], for the setting “cyclohexane”, the “Solubility Test Cyclohexane” value is reported as “B (B means insoluble)”. Also, the “Solubility Test Hexane” value (hexane) is reported as “B (B means insoluble)”.
